Values quoted from earlier work as cited in patent US20140100283A1, “Method to Increase Absorption and Bioavailability of Oral Glutathione” (Atlantic Pro Nutrients, Inc. dba XYMOGEN, priority 2012, published 2014).

Details: in vivo

N[C@@H](CCC(=O)N[C@@H](CS)C(=O)NCC(=O)O)C(=O)O [glutathione, Glutathione]
increase in circulating glutathione after oral administration: does not increase circulating glutathione to a clinically beneficial extent
